Test results: US20190105340A1, “METHODS AND COMPOSITIONS FOR TARGETING VASCULAR MIMICRY” (New York Genome Center, Inc., priority 2017, published 2019)
Entries after “also recorded” stand apart in the source; their conditions may differ.

Assays:
[1] = cancer patients; cited from earlier work
4T1-T^VM cells [2] = assay: plating remaining treated cells in 2D (cell viability); assay type: cell-based, mouse; settings: remaining treated cells plated in 2D
From the text: To ascertain whether regulation of VM underlies these effects of IRE1 on metastasis we turned to the in vitro VM tube assay. Inhibition of IRE1 with two independent small molecule inhibitors of its RNAse activity enhanced VM tubulogenesis while activation of IRE1 with Tunicamycin suppressed VM (FIGS. 4E and F).

4T1-T^VM cells [3] = assay: in vitro VM tube assay on Matrigel; assay type: cell-based, mouse; settings: 4T1-T^VM cells treated directly, plated on Matrigel
From the text: FIG. 1G are gel photographs showing the results of an in vitro Matrigel assay for VM. Only VM clones 4T1-E and 4T1-T can form tube structures when plated on Matrigel. All data from ref. 7.
Both SerpinE2 and SLPI are secreted proteins but whether their secretion is necessary for their effects on VM is unknown. To ascertain the importance of intra- vs extracellular localization of SerpinE2 and SLPI, we perform knockdown add-back experiments in which we suppress SerpinE2 or SLPI in 4T1-T^VM cells using shRNAs directed against the 3′ UTR followed by re-expression of HALO-tagged coding sequence constructs (FIG. 2) in which the signal peptide (a necessary signal for secretion) is either present or absent^8. These engineered cell lines then are tested for their ability to form VM tubes in vitro in the Matrigel assay and their ability to form VM channels and metastases in vivo by transplantation into the mammary fat-pad of Balb/C mice.
To ascertain whether regulation of VM underlies these effects of IRE1 on metastasis we turned to the in vitro VM tube assay. Inhibition of IRE1 with two independent small molecule inhibitors of its RNAse activity enhanced VM tubulogenesis while activation of IRE1 with Tunicamycin suppressed VM (FIGS. 4E and F). […]

[4] = low-dose, IRE1 activation in vivo; cited from earlier work
4T1-T^VM cells [5] = assay: polyA+ RNA-Seq of treated cells with GO analysis and GSEA; assay type: cell-based, mouse
From the text: Y axis is log^2 fold change mRNA levels and X axis is the negative log^10 of the corrected p-value. Red points highlight significant changes with a p value below 0.05.
To assess the role of VM as a resistance mechanism in this clinical cohort, we examined whether this Bev resistance gene signature was altered by perturbations that influence VM (FIGS. 9A-9C). […] Thus, co-targeting of VM may enhance response to anti-angiogenic cancer therapies.

| Substance | clinical response [1] | effects on cell viability (4T1-T^VM cells [2]) | VM tubulogenesis (tube formation) (4T1-T^VM cells [3]) | toxicity in vivo [4] | GO analysis of genes significantly down-regulated by Tunicamycin/IRE1 activation and up-regulated by IRE1 inhibition (4T1-T^VM cells [5]; DESeq corrected p value<0.05) | GO analysis of genes significantly up-regulated by Tunicamycin/IRE1 activation and down-regulated by IRE1 inhibition (4T1-T^VM cells [5]; DESeq corrected p value<0.05) | Bev resistance gene signature (GSEA) (4T1-T^VM cells [5]; bevacizumab resistance genes of Mehta et al. in IRE1-regulated expression data) | VM gene signature (GSEA) (4T1-T^VM cells [5]; signature from VM clones vs all other clones) |
| --- | --- | --- | --- | --- | --- | --- | --- | --- |
| Avastin®/bevacizumab: VEGF-blocking antibody (Genentech) | most patients showing transient responses followed by inevitable resistance |  |  |  |  |  |  |  |
| Tunicamycin |  | ruled out any demonstrable effects on cell viability | suppressed VM; also recorded: profoundly suppresses VM tubulogenesis | without apparent toxicity | enriched for regulators of vasculature development and secreted ECM/ECM-affiliated genes | enrichment of terms related to ER stress | globally down-regulated; also recorded: profoundly suppresses | profoundly suppresses |
